Key:
human cathepsin K = human cathepsin K (UniProt P43236); test: Cathepsin K Assay (hrbCat K); format: biochemical; conditions: Z-Leu-Arg-AMC substrate, pH 5.5, 15 min preincubation; read-out: hrbCat K (IP (nM))
Outline: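 Human cathepsin K (0.4 nM) was preincubated 15 min at room temperature with compound in 50 mM MES pH 5.5, 2.5 mM EDTA, 2.5 mM DTT and 10% DMSO. Inhibition was fitted to a dose-response model.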

human cathepsin F = target: T1, human cathepsin F (Homo sapiens, UniProt Q9UBX1); test: Cathepsin F assay (hCat F); format: biochemical; conditions: Z-Phe-Arg-AMC substrate, pH 5.5, 15 min preincubation; read-out: hCat F (IP (nM))
T1 sequence (Q9UBX1 271-484): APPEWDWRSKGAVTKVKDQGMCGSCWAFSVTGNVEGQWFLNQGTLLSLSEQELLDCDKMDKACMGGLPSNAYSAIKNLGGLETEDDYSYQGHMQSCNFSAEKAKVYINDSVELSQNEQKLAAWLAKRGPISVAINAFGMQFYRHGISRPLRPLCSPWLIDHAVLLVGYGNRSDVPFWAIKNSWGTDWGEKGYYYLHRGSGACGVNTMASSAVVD
Outline: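 AMC release from Z-Phe-Arg-AMC, added at 8 μM, was monitored fluorometrically (360/460 nm) for 20 min after 10 nM enzyme and compound had been preincubated 15 min at room temperature. Buffer: MES 50 mM pH 5.5, EDTA and DTT 2.5 mM each, 10% DMSO. Compound DMSO dilutions spanned 500–0.025 μM (3-fold). Dose-response fitting gave % inhibition.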

Compound | IC50 (human cathepsin K) [nM] | IC50 (human cathepsin F) [nM]
N#CC1(NC(=O)[C@@H]2CC(F)(F)CC[C@H]2c2nc(-c3ccc(F)cc3)oc2-c2ccc(N3CCS(=O)(=O)CC3)cc2)CC1 [Example 165, (1R,2R)-N-(1-cyanocyclopropyl)-2-(5-(4-(1,1-dioxidothiomorpho-lino)phenyl)-2-(4-fluorophenyl)oxazol-4-yl)-5,5-difluorocyclohexane-carboxamide] | 0.6 | 61
CC(C)(C)c1nc([C@@H]2CCC(F)(F)C[C@H]2C(=O)NC2(C#N)CC2)c(-c2ccc(N3CCS(=O)(=O)CC3)cc2)o1 [Example 166, (1R,2R)-2-(2-(tert-butyl)-5-(4-(1,1-dioxidothiomorpho-lino)phenyl)oxazol-4-yl)-N-(1-cyanocyclopropyl)-5,5-difluorocyclohexane-carboxamide] | 0.7 | 356
CC(C)(C)c1nc([C@@H]2CCCC[C@H]2C(=O)NC2(C#N)CC2)c(-c2ccc(N3CCS(=O)(=O)CC3)cc2)o1 [Example 167, (1R,2R)-2-(2-(tert-butyl)-5-(4-(1,1-dioxidothiomorpho-lino)phenyl)oxazol-4-yl)-N-(1-cyanocyclopropyl) cyclohexanecarbox-amide] | 2.4 | 5120
CC(C)(C)c1nc([C@@H]2CC[C@H](F)C[C@H]2C(=O)NC2(C#N)CC2)c(-c2ccc(N3CCS(=O)(=O)CC3)cc2)o1 [Example 168, (1R,2R,5S)-2-(2-(tert-butyl)-5-(4-(1,1-dioxidothiomorpho-lino)phenyl)oxazol-4-yl)-N-(1-cyanocyclopropyl)-5-fluorocyclohexane-carboxamide] | 3.3 | ≥ 10000
C[C@@H](C#N)NC(=O)[C@@H]1C[C@@H](F)CC[C@H]1c1nc(C(C)(C)C)oc1-c1ccc(N2CCS(=O)(=O)CC2)cc1 [Example 169, (1R,2R,5S)-2-(2-(tert-butyl)-5-(4-(1,1-dioxidothiomorpho-lino)phenyl)oxazol-4-yl)-N-((S)-1-cyanoethyl)-5-fluorocyclohexane-carboxamide] | 2.7 | 5660
CC(C)[C@@H](C#N)NC(=O)[C@@H]1C[C@@H](F)CC[C@H]1c1nc(C(C)(C)C)oc1-c1ccc(N2CCS(=O)(=O)CC2)cc1 [Example 170, (1R,2R,5S)-2-(2-(tert-butyl)-5-(4-(1,1-dioxidothiomorpho-lino)phenyl)oxazol-4-yl)-N-((S)-1-cyano-2-methylpropyl)-5-fluorocyclohexane-carboxamide] | 12 | ≥ 10000
C[C@@H](C#N)NC(=O)[C@@H]1C[C@@H](F)CC[C@H]1c1nc(C(C)(C)C)oc1-c1ccc(N2CCS(=N)(=O)CC2)cc1 [Example 171, (1R,2R,5S)-2-(2-(tert-butyl)-5-(4-(1-imino-1-oxidothiomorpholino)phenyl)oxazol-4-yl)-N-((S)-1-cyanoethyl)-5-fluorocyclohexane-carboxamide] | 4.8 | 7420
CC(C)[C@@H](C#N)NC(=O)[C@@H]1C[C@@H](F)CC[C@H]1c1nc(C(C)(C)C)oc1-c1ccc(N2CCS(=N)(=O)CC2)cc1 [Example 172, (1R,2R,5S)-2-(2-(tert-butyl)-5-(4-(1-imino-1-oxidothiomorpholino)phenyl)oxazol-4-yl)-N-((S)-1-cyano-2-methylpropyl)-5-fluorocyclohexane-carboxamide] | 34.4 | ≥ 10000
CN=S1(=O)CCN(c2ccc(-c3oc(C(C)(C)C)nc3[C@@H]3CC[C@H](F)C[C@H]3C(=O)N[C@@H](C)C#N)cc2)CC1 [Example 173, (1R,2R,5S)-2-(2-(tert-butyl)-5-(4-(1-(methylimino)-1-oxidothiomorpholino)phenyl)oxazol-4-yl)-N-((S)-1-cyanoethyl)-5-fluorocyclohexane-carboxamide] | 4.7 | 6900

Reference: patent US9573913B2, “Cathepsin cysteine protease inhibitors” (Merck Sharp & Dohme Corp., priority 2013, dated 2017)
